# Measured values taken from US12286435B2, “Compound having benzo seven-membered ring structure, preparation method therefor, and use thereof” (BIONNA (BEIJING) MEDICAL TECHNOLOGY CO., LTD., priority 2019, dated 2025).
# Values joined by “and” are separate entries in the source; they are usually repeats but may differ in a detail not shown here. Identical values can stand only once. Counter-ions that a name gives are not always drawn.
# Key:
# BRD4 BD1 protein = BRD4 BD1 protein (Homo sapiens (Human), UniProt O60885); assay: Fluorescence polarization binding affinity (Ki) with BRD4 BD1 protein; conditions: fluorescence polarization; Ki calculated from IC50
# BRD4 BD2 protein = BRD4 BD2 protein (Homo sapiens (Human), UniProt O60885); assay: Fluorescence polarization binding affinity (Ki) with BRD4 BD2 protein; conditions: fluorescence polarization; Ki calculated from IC50
# [1] = tested on: multiple myeloma MM.1S cell line; assay: Cell viability (CCK-8), multiple myeloma MM.1S; assay type: cell-based; conditions: Homo sapiens, MM1.S, 96 h, MM.1S cells, 4 days, CCK-8, 50% inhibition of cell growth
# Experimental: 3. Determination of cell viability of the compound
# The sample to be tested was dissolved with 100% dimethyl sulfoxide to prepare a 20 mM stock solution of the compound, which was diluted with 100% dimethyl sulfoxide to the highest compound concentration required for the experiment (2.5 mM).
# First, 145 uL of a complete cell culture medium was added to wells B1-G1 of a 96-well flat-bottomed tansparent cell culture plate, and 100 uL of the complete medium was added to wells B2-G12, respectively. Then, 5 uL of the 2.5 mM solution of the compound was added to wells B1-D1 and E1-G1 respectively, and then diluted gradiently by 3-folds to B12-D12 and E12-G12 in sequence. Finally, 50 uL of the solution of the cells to be tested was added to each well, with about 3000-5000 cells per well, and a total volume of 150 uL per well.
# In the experiment, in addition to the tested compound, two other control groups were set up: 1) a control group adding the cells and the complete medium, but without adding the compound; 2) a control group adding the complete medium only, without adding the cells and the compound. The 96-well plate was placed in a 37° C. cell culture incubator containing 5% carbon dioxide for 4 days, added with 15 uL of a CCK-8 reagent per well, and then incubated at 37° C. for 2-4 hours. The 96-well plate was read on a TECAN microplate reader, and the absorbance value at 450 nm wavelength was taken.
# The effect of different concentrations of the compound on cell viability was calculated by the following equation: [absorption value of the experimental group−absorption value of pure cell culture medium without the cells or the compound]/[absorption value of the control group with the tumor cells but no testing compound−absorption value of pure cell culture medium without the cell or the compound]×100%.
# The above data were precessed by software, and the IC50 value was the concentration of the compound corresponding to the 50% inhibition rate of cell growth.
# Based on the above test method of the compound on cell viability, a variety of […] cancer cell lines were tested, using multiple myeloma MM.1S, breast cancer MDA-MB-231 and leukemia MV4-11 cell lines as exemples. Using this test method, the IC50 values of partial compounds in the examples of the present invention measured in multiple myeloma MM.1S, breast cancer MDA-MB-231 cell lines and leukemia MV4-11 cell lines were shown in Table 2.
Compound,Ki (BRD4 BD1 protein) [nM],Ki (BRD4 BD2 protein),IC50 [1] [nM]
"Cc1nnn2c1-c1ccc(-c3cnn(C)c3)cc1C(Nc1ccc3ncccc3c1)CC2 (centres unmarked) [LB88, 1-methyl-9-(1-methyl-1H-pyrazol-4-yl)-N-(quinolin-6-yl)-6,7-dihydro-5H-benzo[c][1,2,3]triazolo[1,5-a]azepin-7-amine]",137,15.1 nM,24.3
"Cc1nnn2c1-c1ccc(-c3cnn(C)c3)cc1C(Nc1ccccc1OCCO)CC2 (centres unmarked) [LB90, 2-(2-((1-methyl-9-(1-methyl-1H-pyrazol-4-yl)-6,7-dihydro-5H-benzo[c][1,2,3]triazolo[1,5-a]azepin-7-yl)amino)phenoxy)ethanol]",134,16.5 nM,51.9
"CC(=O)N1CC=C(c2ccc3c(c2)C(Nc2ccc(F)c(Cl)c2)CCn2nnc(C)c2-3)CC1 (centres unmarked) [LD77, 1-(4-(7-((3-chloro-4-fluorophenyl)amino)-1-methyl-6,7-dihydro-5H-benzo[c][1,2,3]triazolo[1,5-a]azepin-9-yl)-3,6-dihydropyridin-1(2H)-yl)ethan-1-one]",81.7,3.97 nM and 3.16 nM,1.86
"Cc1nnn2c1-c1ccc(-c3cnn(C)c3)cc1C(Nc1ccc(OCCO)cc1)CC2 (centres unmarked) [LB68, 2-(4-((1-methyl-9-(1-methyl-1H-pyrazol-4-yl)-6,7-dihydro-5H-benzo[c][1,2,3]triazolo[1,5-a]azepin-7-yl)amino)phenoxy)ethanol]",68.5,13 nM,112
"Cc1nnn2c1-c1ccc(-c3cnn(C)c3)cc1C(Nc1ccc(CN(C)C)cc1)CC2 (centres unmarked) [LB138, N-(4-((dimethylamino)methyl)phenyl)-1-methyl-9-(1-methyl-1H-pyrazol-4-yl)-6,7-dihydro-5H-benzo[c][1,2,3]triazolo[1,5-a]azepin-7-amine]",1040,203 nM,961
"Cc1cc(NC2CCn3nnc(C)c3-c3ccc(-c4cnn(C)c4)cc32)n(C)n1 (centres unmarked) [BE114, N-(1,3-dimethyl-1H-pyrazol-5-yl)-1-methyl-9-(1-methyl-1H-pyrazol-4-yl)-6,7-dihydro-5H-benzo[c][1,2, 3]triazolo[1,5-a]azepin-7-amine]",45.4,7 nM,775
"Cc1nnn2c1-c1ccc(-c3cnn(C)c3)cc1C(Nc1ccc(CC#N)cc1)CC2 (centres unmarked) [LC03, 2-(4-((1-methyl-9-(1-methyl-1H-pyrazol-4-yl)-6,7-dihydro-5H-benzo[c][1,2,3]triazolo[1,5-a]azepin-7-yl)amino)phenyl)acetonitrile]",32.9,1.33 nM and 4.03 nM,59
"Cc1nnn2c1-c1ccc(-c3cnn(C)c3)cc1C(Nc1ccc3[nH]ccc3c1)CC2 (centres unmarked) [LB98, N-(1H-indo1-5-yl)-1-methyl-9-(1-methyl-1H-pyrazol-4-yl)-6,7-dihydro-5H-benzo[c][1,2,3]triazolo[1,5-a]azepin-7-amine]",52.4,9.1 nM,21.5
"Cc1nnn2c1-c1ccc(-c3cnn(C)c3)cc1C(Nc1ccc(C(O)(C(F)(F)F)C(F)(F)F)cc1)CC2 (centres unmarked) [LB83, 1,1,1,3,3,3-hexafluoro-2-(4-((1-methyl-9-(1-methyl-1H-pyrazol-4-yl)-6,7-dihydro-5H-Benzo[c][1,2,3]triazolo[1,5-a]azepin-7-yl)amino)phenyl)propan-2-ol]",180,38.4 nM,250
"Cc1nnn2c1-c1ccc(C3=CCNCC3)cc1C(Nc1cccc(Cl)c1)CC2 (centres unmarked) [LC79, N-(3-chlorophenyl)-1-methyl-9-(1,2,3,6-tetrahydropyridin-4-yl)-6,7-dihydro-5H-benzo[c][1,2,3]triazolo[1,5-a]azepin-7-amine 2,2,2-trifluoroacetate]",639,34.2 nM,936
"Cc1nnn2c1-c1ccc(-c3cnn(C)c3)cc1C(Nc1ccc(C(=O)O)cc1)CC2 (centres unmarked) [LB20, 4-((1-methyl-9-(1-methyl-1H-pyrazol-4-yl)-6,7-dihydro-5H-benzo[c][1,2,3]triazolo[1,5-a]azepin-7-yl)amino)benzoic acid]",1720,82.8 nM,2460
"Cc1noc2c1-c1ccc(-c3cnn(C)c3)cc1C(Nc1ccc(Cl)cc1)CC2 (centres unmarked) [LA55, N-(4-chlorophenyl)-1-methyl-8-(1-methyl-1H-pyrazol-4-yl)-5,6-dihydro-4H-benzo[6,7]cyclohepta[1,2-d]isoxazol-6-amine]",53.7,25.5 nM,26.5
"COc1ccc2c(c1)C(Nc1ccccc1)CCc1onc(C)c1-2 (centres unmarked) [FA03, 8-methoxy-1-methyl-N-phenyl-5,6-dihydro-4H-benzo[6,7]cyclohepta[1,2-d]isoxazol-6-amine]",206,56.3 nM,502
"Cc1nnn2c1-c1ccc(C3=CCNCC3)cc1C(Nc1ccc(Cl)cc1)CC2 (centres unmarked) [RB99, N-(4-chlorophenyl)-1-methyl-9-(1,2,3,6-tetrahydropyridin-4-yl)-6,7-dihydro-5H-benzo[c][1,2,3]triazolo[1,5-a]azepin-7-amine hydrochloride]",422,19.4 nM,215
"Cc1nnn2c1-c1ccc(-c3cnn(C)c3)cc1C(Nc1ccccc1CC(=O)O)CC2 (centres unmarked) [LB185, 2-(2-((1-methyl-9-(1-methyl-1H-pyrazol-4-yl)-6,7-dihydro-5H-benzo[c][1,2,3]triazolo[1,5-a]azepin-7-yl)amino)phenyl)acetic acid]",218,14.5 nM,1620
"Cc1nnn2c1-c1ccc(C3=CCN(C)CC3)cc1C(Nc1cccc(Cl)c1)CC2 (centres unmarked) [LD07, N-(3-chlorophenyl)-1-methyl-9-(1-methyl-1,2,3,6-tetrahydropyridin-4-yl)-6,7-dihydro-5H-benzo[c][1,2,3]triazolo[1,5-a]azepin-7-amine 2,2,2-trifluoroacetate]",770,33.1 nM,146
"Cc1nnn2c1-c1ccc(-c3cnn(C)c3)cc1C(Nc1ccc(Cl)cc1)CC2C (centres unmarked) [BE25, N-(4-chlorophenyl)-1,5-dimethyl-9-(1-methyl-1H-pyrazol-4-yl)-6,7-dihydro-5H-benzo[c][1,2,3]triazolo[1,5-a]azepin-7-amine]",20.8,9.4 nM,3.47
"Cc1nnn2c1-c1ccc(-c3cnn(C)c3)cc1C(Nc1cccc(CCO)c1)CC2 (centres unmarked) [LB71, 2-(3-((1-methyl-9-(1-methyl-1H-pyrazol-4-yl)-6,7-dihydro-5H-benzo[c][1,2,3]triazolo[1,5-a]azepin-7-yl)amino)phenyl)ethanol]",,,151
"COC(=O)Cc1ccc(NC2CCn3nnc(C)c3-c3ccc(-c4cnn(C)c4)cc32)cc1 (centres unmarked) [LB38, methyl 2-(4-((1-methyl-9-(1-methyl-1H-pyrazol-4-yl)-6,7-dihydro-5H-benzo[c][1,2,3]triazolo[1,5-a]azepin-7-yl)amino)phenyl)acetate]",,,32.9

# Other lines, results leading:
Ki (BRD4 BD1 protein) [nM],Ki (BRD4 BD2 protein),IC50 [1] [nM],Compound
73.7,17.1 nM,8.54,"Cc1nnn2c1-c1ccc(-c3ccncc3)cc1C(Nc1ccc(Cl)cc1)CC2 (centres unmarked) [RA188, N-(4-chlorophenyl)-1-methyl-9-(pyridin-4-yl)-6,7-dihydro-5H-benzo[c][1,2,3]triazolo[1,5-a]azepin-7-amine]"
104,35.2 nM,257,"Cc1nnn2c1-c1ccc(-c3cncc4[nH]ccc34)cc1C(Nc1ccc(Cl)cc1)CC2 (centres unmarked) [RB90, N-(4-chlorophenyl)-1-methyl-9-(1H-pyrrolo[2,3-c]pyridin-4-yl)-6,7-dihydro-5H-benzo[c][1,2,3]triazolo [1,5-a]azepin-7-amine]"
53,25.7 nM,324,"Cc1nnn2c1-c1ccc(-c3cccc4[nH]cnc34)cc1C(Nc1ccc(Cl)cc1)CC2 (centres unmarked) [RB42, 9-(1H-benzo[d]imidazol-4-yl)-N-(4-chlorophenyl)-1-methyl-6,7-dihydro-5H-benzo[c][1,2,3]triazolo[1,5-a]azepin-7-amine]"
129,15.4 nM,53.2,"Cc1nnn2c1-c1ccc(-c3cncnc3)cc1C(Nc1ccc(Cl)cc1)CC2 (centres unmarked) [RB06, N-(4-chlorophenyl)-1-methyl-9-(pyrimidin-5-yl)-6,7-dihydro-5H-benzo[c][1,2,3]triazolo[1,5-a]azepin-7-amine]"
52,11.1 nM,50.5,"Cc1nnn2c1-c1ccc(-c3cccnc3)cc1C(Nc1ccc(Cl)cc1)CC2 (centres unmarked) [RA193, N-(4-chlorophenyl)-1-methyl-9-(pyridin-3-yl)-6,7-dihydro-5H-benzo[c][1,2,3]triazolo[1,5-a]azepin-7-amine]"
